Laboratory results published in patent publication US20080262080A1, “Allergy Suppressive Agent” (KYUSHU UNIVERSITY, NATIONAL UNIVERSITY CORPORATION, priority 2004, published 2008).

Tested on: high-affinity IgE receptor (FcεRI)
Experiment: FcεRI expression amount on the cell surface of KU812 cells by flow cytometry
Type: cell-based, human
Details: 24 hours
Experimental: By using antihuman FcRI antibody (CRA1), the FcεRI expression amount on the surface of human basophil-like cell line KU812 cells was analyzed by flow cytometry. Cells having been incubated by adding DMSO alone were compared with cells having been incubated by adding chrysin. The ratio of overexpression of FcεRI is indicated in percentage. As a basal medium for incubating cells, use was made of RPMI 1640 (Nissui, Japan), to which 100 U/mL of penicillin (Meiji Pharmaceutical Company, Tokyo, Japan), […] of streptomycin (Meiji Pharmaceutical Company, Tokyo, Japan), 12.5 mM of MaHCO3 (Wako Pure Chemical Industries, Osaka, Japan) and 10 mM of HEPES Wako Pure Chemical Industries) had been added. Fetal bovine serum (FBS) purchased form Bio Source International was added to the basal medium to give a concentration of 5 to 10%. Human basophil-like cell line KU812 employed in this experiment was assigned by Japan Collection of Research Bioresources (JCRB) and subcultured and maintained in RPMI 1640 medium comprising 5 to 10% of FBS at 37° C. in 5% CO2 gas under humidification. KU812 cells were incubated in RPMI 1640 medium, to which chrysin dissolved in DMSO had been added, for 0 to 24 hours. A system wherein the cells were incubated in the medium comprising DMSO alone was used as a control. After incubating, the cells were collected and incubated in 5% FBS-PBS, to which 10 μg/mL of antihuman FcεRI α chain mouse monoclonal antibody CRA-1 (Kyokuto Pharmaceutical) had been added, at 4° C. for 40 to 60 min. As a negative control, 10 μg/mL of mouse control IgG2b antibody (DAKO) was used. Then, the cells were washed with ice-cooled PBS once and incubated in 5% FBS-PBS, to which 10 μg/mL of antimouse IgG2b FITC-labeled antibody (Protos Immunoresearch) had been added, at 4° C. for 40 to 60 min. After incubating, the cells were washed with PBS and then resuspended in PBS. The cell suspension thus obtained was analyzed by flow cytometry. In the flow cytometry analysis, FACS Calibur (Becton Sickinson, Sunnyvale, Calif.) was employed. The secondary antibody reaction and the subsequent procedures were conducted in the dark and the cells were preserved on ice while conducting the analysis. KU812 cells (5×10^5 cells/mL) was incubated in 5% bovine fetal serum comprising RPMI 1640 medium, to which chrysin (0, 1, 5 and 10 μM) and apigenin (purchased from Aldrich Chem. Co., St. Louis, Mo.; 0, 1, 5 and 10 μM) had been added, for 24 hours. After incubating, the FcεRI expression level on the cell surface was measured by flow cytometry (experimental procedure: see [0047]).

With `O=c1cc(-c2ccc(O)cc2)oc2cc(O)cc(O)c12` [Apigenin] as the molecule, how does the “FcεRI expression suppressive rate (%)” value (single agent 1 μM) read?
The value was 5.0%.

And the “FcεRI expression suppressive rate (%)” value (single agent 5 μM)?
Its value is 17.1%.

And the “FcεRI expression suppressive rate (%)” value (single agent 10 μM)?
The value was 36.1%.
